From the NIST ThermoML archive (doi:10.1016/j.jct.2012.08.021)

Experiments:
[1] = 101 kPa, Liquid, Vibrating tube method
[2] = xn = mol fraction of the nth substance listed; settings: 101 kPa, Liquid, Vibrating tube method, x2 = 0

NCCO [2-aminoethan-1-ol]
[1]
Settings	mass density [kg/m3]
293.16 K	1016.34
303.14 K	1008.4
313.14 K	1000.41
323.15 K	992.384
333.14 K	984.302
343.14 K	976.141
353.14 K	967.893
363.15 K	959.536

CN(CCO)CCO [N-methyldiethanolamine]
[1]
Settings	mass density [kg/m3]
293.15 K	1040.6
303.15 K	1033.02
313.15 K	1025.4
323.15 K	1017.74
333.15 K	1010.03
343.15 K	1002.25
353.14 K	994.404
363.15 K	986.471

OCCNCCO [diethanolamine]
[1]
Settings	mass density [kg/m3]
293.15 K	1097.61
303.15 K	1091.17
313.15 K	1084.6
323.15 K	1077.88
333.14 K	1071.11
343.14 K	1064.25
353.14 K	1057.31
363.15 K	1050.24

C[S+](C)[O-] [dimethyl sulfoxide]
[1]
Settings	mass density [kg/m3]
293.14 K	1100.87
303.15 K	1090.81
313.14 K	1080.77
323.14 K	1070.73
333.15 K	1060.68
343.14 K	1050.62
353.14 K	1040.54
363.15 K	1030.43

C[S+](C)[O-] [dimethyl sulfoxide] + CN(CCO)CCO
[2]
Settings	mass density [kg/m3]
293.14 K	1100.87
303.15 K	1090.81
313.14 K	1080.77
323.14 K	1070.73
333.15 K	1060.68
343.14 K	1050.62
353.14 K	1040.54
363.15 K	1030.43

C[S+](C)[O-] [dimethyl sulfoxide] + NCCO
[2]
Settings	mass density [kg/m3]
293.14 K	1100.87
303.15 K	1090.81
313.14 K	1080.77
323.14 K	1070.73
333.15 K	1060.68
343.14 K	1050.62
353.14 K	1040.54
363.15 K	1030.43

C[S+](C)[O-] [dimethyl sulfoxide] + OCCNCCO
[2]
Settings	mass density [kg/m3]
293.14 K	1100.87
303.15 K	1090.81
313.14 K	1080.77
323.14 K	1070.73
333.15 K	1060.68
343.14 K	1050.62
353.14 K	1040.54
363.15 K	1030.43
